According to PubChem BioAssay (NCI):
Several values for one entry are separate records, joined by “and”; a condition that tells them apart may be missing. Equal values may be shown once.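 How tested: cells in 96-well plates exposed to compound for 48 hours at five concentrations. At the TGI there is no net growth.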

Experiments:
Assay in all cases: NCI anticancer screen, dose series, 48 h
[1] = tested on: CAKI-1 renal
[2] = tested on: COLO 205 colon
[3] = tested on: HCC-2998 colon
[4] = tested on: HCT-15 colon
[5] = tested on: HT29 colon
[6] = tested on: MCF7 breast
[7] = tested on: MOLT-4 leukemia
[8] = tested on: NCI-H460 lung
[9] = tested on: NCI-H522 lung
[10] = tested on: RPMI-8226 leukemia
[11] = tested on: SF-268 CNS
[12] = tested on: T-47D breast

Molecule C/C1=C\CC[C@@]2(C)O[C@@H]2C[C@@H]2[C@H](C/C(C)=C/CC1)OC(=O)[C@]21CO1 has a TGI [1] greater than 100 µM, a TGI [2] greater than 100 µM and a TGI [3] greater than 100 µM. For the same molecule, the TGI [4] was greater than 100 µM, the TGI [5] was greater than 100 µM and the TGI [6] was greater than 100 µM. The TGI [7] was greater than 100 µM, the TGI [8] was 45.1 µM and the TGI [9] was greater than 100 µM. It also gave a TGI [10] greater than 100 µM, a TGI [11] greater than 100 µM and a TGI [12] greater than 100 µM.

With CCCc1cn2c(/C=N/N=C(N)N)c(-c3ccc([N+](=O)[O-])cc3)nc2s1 the TGI [1] was 3.1 µM, the TGI [2] was 1.19 µM and the TGI [3] was 2.03 µM. It also gave a TGI [4] of 2.3 µM, a TGI [5] greater than 100 µM and a TGI [7] of 0.441 µM. For the same molecule, the TGI [10] was 2.76 µM and the TGI [12] was 2.71 µM.

For CC(C)(Cl)C(Cl)CC/C(CBr)=C(\Cl)CBr (configuration not stated), the TGI [1] was 7.08 µM, the TGI [2] was 8.1 µM and the TGI [3] was 21.6 µM. The TGI [4] was 3.51 µM, the TGI [5] was 25 µM and the TGI [6] was 6.97 µM. The TGI [7] was 2.32 µM, the TGI [8] was 8.21 µM and the TGI [9] was 3.09 µM. The TGI [11] was 7.67 µM.

With Oc1c(Cl)c(Cl)c(O)c(-c2cnc(-c3ncc(-c4c(O)c(Cl)c(Cl)c(O)c4Cl)s3)s2)c1Cl the TGI [1] was 41.2 µM, the TGI [2] was 97.2 µM and the TGI [3] was greater than 100 µM. For the same molecule, the TGI [4] was 33.3 µM, the TGI [5] was greater than 100 µM and the TGI [6] was 52 µM. The TGI [7] was greater than 100 µM, the TGI [8] was greater than 100 µM and the TGI [9] was 5.43 µM. For the same molecule, the TGI [11] was 55.3 µM and the TGI [12] was greater than 100 µM.

For O=C(O)CCC1(CCC(=O)O)CCCCCCCCC(CCC(=O)O)(CCC(=O)O)C(=O)C1=O, the TGI [1] was greater than 100 µM, the TGI [2] was greater than 100 µM and the TGI [3] was greater than 100 µM. The TGI [4] was greater than 100 µM, the TGI [5] was greater than 100 µM and the TGI [6] was greater than 100 µM. It also gave a TGI [8] greater than 100 µM, a TGI [9] greater than 100 µM and a TGI [10] greater than 100 µM. The TGI [11] was greater than 100 µM and the TGI [12] was greater than 100 µM.

Cc1cc2nc3c(C#N)c4c(c(Cl)n3c2cc1C)CCC4 showed a TGI [1] of 35.9 µM, a TGI [2] greater than 100 µM and a TGI [4] of 37.1 µM. It also gave a TGI [7] greater than 100 µM, a TGI [8] greater than 100 µM and a TGI [9] of 32.5 µM. It also gave a TGI [10] of 51 µM, a TGI [11] of 53.3 µM and a TGI [12] greater than 100 µM.

In the case of CC(=O)OC1(C)CC(C)C(=O)C(C(O)CC2CC(=O)NC(=O)C2)C1 (configuration not stated), the TGI [2] is reported as 0.18 µM and 0.0404 µM, the TGI [3] is reported as 0.0409 µM and the TGI [4] is reported as 0.176 µM. The TGI [5] was 0.133 µM, the TGI [6] was 0.0813 µM and the TGI [7] was 0.316 µM. For the same molecule, the TGI [8] was 0.363 µM and 0.224 µM, the TGI [9] was 0.146 µM and the TGI [10] was 0.0162 µM. It also gave a TGI [11] of 1.42 µM and a TGI [12] of 0.583 µM.

O=C(OCC1CC(C2(O)CCCCC2)C(=O)O1)c1ccccc1 (configuration not stated) was tested, and the TGI [1] was greater than 100 µM, the TGI [2] was greater than 100 µM and the TGI [3] was greater than 100 µM. The TGI [4] was greater than 100 µM, the TGI [5] was greater than 100 µM and the TGI [6] was greater than 100 µM. For the same molecule, the TGI [7] was greater than 100 µM, the TGI [8] was greater than 100 µM and the TGI [9] was greater than 100 µM. For the same molecule, the TGI [10] was greater than 100 µM and the TGI [11] was greater than 100 µM.

Molecule O=C(NCCCN1CCN(CCCNC(=O)c2cc(-c3ccccc3)nc3ccccc23)CC1)c1cc(-c2ccccc2)nc2ccccc12 has a TGI [1] of 20.8 µM, a TGI [2] greater than 71.3 µM and a TGI [3] of 6.06 µM. It also gave a TGI [4] greater than 100 µM, a TGI [5] greater than 39.7 µM and a TGI [6] of 53.5 µM. It also gave a TGI [7] greater than 66.1 µM, a TGI [8] greater than 64.7 µM and a TGI [9] of 32 µM. For the same molecule, the TGI [10] was greater than 57.8 µM, the TGI [11] was greater than 60.2 µM and the TGI [12] was 33.9 µM.

Cc1ccc(/C=C2\CCS(=O)(=O)c3ccccc3C2=O)cc1 showed a TGI [1] of 33.2 µM, a TGI [2] of 30.2 µM and a TGI [3] of 28.9 µM. It also gave a TGI [4] of 27.7 µM, a TGI [5] of 31.9 µM and a TGI [6] of 34.8 µM. For the same molecule, the TGI [7] was 43.6 µM, the TGI [8] was 31.3 µM and the TGI [10] was greater than 100 µM. The TGI [11] was 51.6 µM and the TGI [12] was 32.6 µM.

Work on COc1c(-c2ccc(F)cc2)oc2c(CC(=O)O)cccc2c1=O yielded a TGI [1] of 71.5 µM, a TGI [2] greater than 100 µM and a TGI [3] greater than 100 µM. For the same molecule, the TGI [5] was greater than 100 µM, the TGI [6] was greater than 100 µM and the TGI [7] was greater than 100 µM. It also gave a TGI [9] greater than 100 µM, a TGI [11] greater than 100 µM and a TGI [12] greater than 100 µM.

CC(=O)OC1CC2C(=O)CC1(C)C2(C)C (configuration not stated) showed a TGI [1] greater than 100 µM, a TGI [2] greater than 100 µM and a TGI [3] greater than 100 µM. It also gave a TGI [4] greater than 100 µM, a TGI [5] greater than 100 µM and a TGI [6] greater than 100 µM. The TGI [7] was greater than 100 µM, the TGI [8] was greater than 100 µM and the TGI [9] was greater than 100 µM. For the same molecule, the TGI [10] was greater than 100 µM, the TGI [11] was greater than 100 µM and the TGI [12] was greater than 100 µM.

For CCOC(=O)Cc1ccc(Nc2nc3cc(F)c(F)cc3nc2C(=O)OCC)cc1, the TGI [1] was 42.9 µM, the TGI [2] was greater than 100 µM and the TGI [3] was 69.6 µM. The TGI [4] was greater than 100 µM, the TGI [5] was greater than 100 µM and the TGI [6] was greater than 100 µM. The TGI [7] was greater than 100 µM, the TGI [8] was greater than 100 µM and the TGI [9] was 35.5 µM. For the same molecule, the TGI [10] was greater than 100 µM, the TGI [11] was greater than 100 µM and the TGI [12] was greater than 100 µM.

Molecule CCn1c(=O)c2c3ccc(O)cc3[nH]c2c2ccc(O)cc21 has a TGI [1] greater than 100 µM, a TGI [2] greater than 100 µM and a TGI [3] greater than 100 µM. The TGI [4] was greater than 100 µM, the TGI [5] was greater than 100 µM and the TGI [6] was greater than 100 µM. It also gave a TGI [7] greater than 100 µM, a TGI [9] greater than 100 µM and a TGI [11] greater than 100 µM. For the same molecule, the TGI [12] was greater than 100 µM.

For CC1=C(C(=O)NNC(=O)c2ccccc2O)CC(C(=O)NNC(=O)c2ccccc2O)=C(C)N1, the TGI [1] was greater than 100 µM, the TGI [2] was greater than 86.8 µM and the TGI [3] was greater than 100 µM. The TGI [4] was greater than 100 µM, the TGI [5] was greater than 100 µM and the TGI [6] was greater than 48.5 µM. For the same molecule, the TGI [7] was greater than 100 µM, the TGI [8] was greater than 100 µM and the TGI [9] was greater than 26.7 µM. It also gave a TGI [10] greater than 100 µM, a TGI [11] greater than 100 µM and a TGI [12] greater than 32.6 µM.

Cc1c2c(n3c(nc4ccccc43)c1C#N)NCC2 showed a TGI [1] greater than 10 µM, a TGI [2] greater than 10 µM and a TGI [4] greater than 10 µM. The TGI [5] was greater than 10 µM, the TGI [6] was greater than 10 µM and the TGI [7] was greater than 10 µM. It also gave a TGI [8] greater than 10 µM, a TGI [10] greater than 10 µM and a TGI [11] greater than 10 µM. For the same molecule, the TGI [12] was greater than 10 µM.

CCOC(=O)C12CCC(c3c(C)cccc3C)(O1)C(C(=O)OC)=C2C(=O)OC (configuration not stated) showed a TGI [1] greater than 10 µM, a TGI [2] of 5.08 µM and a TGI [3] greater than 10 µM. For the same molecule, the TGI [4] was greater than 10 µM, the TGI [5] was 4.72 µM and the TGI [6] was greater than 10 µM. The TGI [7] was greater than 10 µM, the TGI [8] was greater than 10 µM and the TGI [9] was greater than 10 µM. It also gave a TGI [10] greater than 10 µM, a TGI [11] greater than 10 µM and a TGI [12] greater than 10 µM.

O=C1NC(NNc2ccccc2)=N/C1=C\c1ccco1 showed a TGI [1] of 30.6 µM, a TGI [2] of 25.1 µM and a TGI [3] of 33 µM. For the same molecule, the TGI [4] was 33 µM, the TGI [5] was 52.3 µM and the TGI [6] was 34 µM. For the same molecule, the TGI [7] was greater than 100 µM, the TGI [8] was 55 µM and the TGI [9] was 27.8 µM. The TGI [10] was 66 µM, the TGI [11] was 75.2 µM and the TGI [12] was 44.9 µM.

With CC1=C(N2CC2)C(=O)C(C)=C(N2CC2)C1=O the TGI [1] was 1.37 µM, the TGI [2] was 0.822 µM and the TGI [3] was 0.362 µM. For the same molecule, the TGI [4] was 3.31 µM, the TGI [5] was 1 µM and the TGI [6] was 1.46 µM. For the same molecule, the TGI [7] was 13.5 µM, the TGI [8] was 0.634 µM and the TGI [9] was 0.423 µM. For the same molecule, the TGI [10] was 9.8 µM, the TGI [11] was 1.08 µM and the TGI [12] was 15.5 µM.
